According to PubChem BioAssay (NCI):
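Test compounds were applied to cells in 96-well plates for 48 hours at 5 doses. TGI is the concentration that stops growth completely.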

Columns and labels:
Test in all cases: NCI tumour cell line growth inhibition, 48 h
DMS 114 small cell lung = test system: DMS 114 small cell lung
KM20L2 colon = test system: KM20L2 colon
DLD-1 colon = test system: DLD-1 colon

For COc1cc2c(cc1OC)C(CC1=C(c3ccccc3)CN3CCc4cc(OC)c(OC)cc4C3C1)NCC2 (stereo not drawn), which TGI (DMS 114 small cell lung) is on record?
The TGI was 30.3 µM.

What about the TGI (KM20L2 colon) of the same molecule?
Its TGI is 28.9 µM.

What about the TGI (DLD-1 colon) of the same molecule?
Its TGI is 34.9 µM.
